8 molecules from patent publication US5834461A, “Tricyclic benzazepine vasopressin antagonists” (American Cyanamid Company, priority 1997, dated 1998) can be followed below.

Structures are written as SMILES.

For assay [1], the target named is vasopressin V1 receptor (rat liver plasma membranes) (Rattus norvegicus, UniProt P30560). As to the kind of experiment: Binding Assay to Rat Hepatic V1 Receptors. The settings on record: for IC50: rat hepatic V1; for inhibition at 10 µM: 2 h, rat hepatic, read-out: V1, % at concentration in brackets.
Assay [2] addresses T1, rat kidney medullary V2 receptors (Rattus norvegicus, UniProt Q00788).
T1 construct: Medullary tissues from rat kidneys are dissected out; from tissue; host or cells: rat kidney medulla membranes
As to the kind of experiment: Binding Assay to Rat Kidney Medullary V2 Receptors. The following applies: for IC50: rat kidney medullary V2; for inhibition at 10 µM: rat kidney, read-out: V2, % at concentration in brackets. In outline:
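Competition binding: [3H]AVP at 0.8 nM, test compounds from 50% DMSO, and membranes from rat kidney medulla, left 120 min on the bench. Filtration then liquid scintillation counting measured bound ligand; 1.0 μM unlabeled ligand set non-specific binding.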

The next assay deals with vasopressin V2. As to the kind of experiment: Vasopressin V2 Antagonist Activity in Conscious Hydrated Rats (diuretic effect). Format: in vivo, normal Sprague-Dawley rats. The settings on record: AVP 0.4 μg/kg i.p. In outline: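 Conscious rats were dosed orally at 0.1–100 mg/kg, and AVP 0.4 μg/kg i.p. in peanut oil followed 1 h later. Urine volume, osmolality and Na/K/Cl were compared against AVP-treated controls, with non-AVP rats as water-loading controls.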

For assay [3], the target named is T2, oxytocin receptors (rat uterus membranes) (Rattus norvegicus, UniProt P70536).
T2 construct: The resulting pellet containing the oxytocin receptors is resuspended; from tissue; host or cells: uterus membranes of DES-treated female Sprague-Dawley rats
T2 sequence (P70536 1-388): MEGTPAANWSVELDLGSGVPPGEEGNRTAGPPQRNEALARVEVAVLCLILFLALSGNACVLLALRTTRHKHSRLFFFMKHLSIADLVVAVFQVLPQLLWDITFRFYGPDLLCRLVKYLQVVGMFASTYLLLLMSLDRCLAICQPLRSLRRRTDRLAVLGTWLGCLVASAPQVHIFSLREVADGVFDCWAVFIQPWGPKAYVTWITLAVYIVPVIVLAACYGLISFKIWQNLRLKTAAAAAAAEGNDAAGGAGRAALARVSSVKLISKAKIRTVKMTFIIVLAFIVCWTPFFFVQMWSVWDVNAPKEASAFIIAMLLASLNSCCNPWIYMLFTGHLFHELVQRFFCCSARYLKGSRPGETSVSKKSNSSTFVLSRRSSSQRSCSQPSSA
The experiment in a line: Oxytocin Receptor Binding. Details: species or system female Sprague-Dawley rats. Here is the method: Female Sprague-Dawley rats weighing approximately 200-250 g are injected intramuscularly (i.m.) with 0.3 mg/kg of body weight of diethylstilbestrol (DES). The rats are sacrificed 18 hours later under pentobarbital anesthesia. The uteri are dissected out, cleaned of fat and connective tissues and rinsed in 50 ml of normal saline. The tissue pooled from six rats is homogenized in 50 ml of […] Tris.HCl, containing 0.5 mM dithiothreitol and 1.0 mM EDTA, adjusted to pH 7.4, using a polytron at setting 6 with three passes of 10 sec each. The homogenate is passed through two (2) layers of cheesecloth and the filtrate centrifuged at 1000×g for 10 min. The clear supernatant is removed and recentrifuged at 165,000×g for 30 min. The resulting pellet containing the oxytocin receptors is resuspended in 50.0 mM Tris.HCl containing 5.0 mM MgCl2 at pH 7.4, to give a protein concentration of 2.5 mg/ml of tissue suspension. This preparation is used in subsequent binding assays with [^3 H]Oxytocin.
Binding of 3,5-[^3 H]Oxytocin ([^3 H]OT) to its receptors is done in microtiter plates using [^3 H]OT, at various concentrations, in an assay buffer of 50.0 mM Tris.HCl, pH 7.4 and containing 5.0 mM MgCl2, and a mixture of protease inhibitors: BSA, 0.1 mg; aprotinin, 1.0 mg; 1,10-phenanthroline, 2.0 mg; […], 10.0 mg; and PMSF, 0.3 mg per 100 ml of buffer solution. Non-specific binding is determined in the presence of 1.0 uM unlabeled OT. The binding reaction is terminated after 60 min., at 22° C., by rapid filtration through glass fiber filters using a Brandel® cell harvester (Biomedical Research and Development Laboratories, Inc., Gaithersburg, Md.). Competition experiments are conducted at equilibrium using 1.0 nM [^3 H]OT and varying the concentration of the displacing agents. The concentrations of agent displacing 50% of [^3 H]OT at its sites (IC50) are calculated by a computer assisted LUNDON-2 program (LUNDON SOFTWARE INC., Ohio, USA).

A further assay has as its system vasopressin V1. As to the kind of experiment: Vasopressin V1 Antagonist Activity in Conscious Rats (vasopressin vasopressor response). Format: in vivo, rat (spontaneously hypertensive rats). The settings on record: 30 mg/kg i.v. An outline of the steps:
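Conscious rats had the ventral caudal tail artery cannulated into the lower abdominal aorta under local procaine anesthesia, plus a caudal vein cannula for intravenous dosing. Pulsatile blood pressure was recorded via a Statham P23Db transducer. Vasopressor responses to vasopressin injections were measured before and after compound dosing, with percent antagonism calculated relative to the pre-drug response taken as 100%.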

Assay [4] addresses T3, vasopressin V1 receptor subtype in human platelet membranes (Homo sapiens, UniProt P37288).
T3 construct: tissue Hudson Valley Blood Services; host or cells: human blood platelets (frozen platelet rich plasma)
The experiment in a line: Binding to Vasopressin V1 Receptor Subtype in Human Platelet Membranes. The settings on record: human platelet V1 (*). On the procedure:
(a) Platelet Membrane Preparation:
Frozen platelet rich plasma (PRP), received from the Hudson Valley Blood Services, are thawed to room temperature. (Platelet Source: Hudson Valley Blood Services, Westchester Medical Center, Valhalla, N.Y.). The tubes containing the PRP are centrifuged at 16,000×g for 10 min. at 4° C. and the supernatant fluid discarded. The platelets resuspended in an equal volume of 50.0 mM Tris.HCl, pH 7.5 containing 120 mM NaCl and 20.0 mM EDTA. The suspension is recentrifuged at 16,000×g for 10 min. This washing step is repeated one more time. The wash discarded and the lysed pellets homogenized in low ionic strength buffer of Tris.HCl, 5.0 mM, pH 7.5 containing 5.0 mM EDTA. The homogenate is centrifuged at 39,000×g for 10 min. The resulting pellet is resuspended in Tris.HCl buffer, 70.0 mM, pH 7.5 and recentrifuged at 39,000×g for 10 min. The final pellet is resuspended in 50.0 mM Tris.HCl buffer pH 7.4 containing 120 mM NaCl and 5.0 mM KCl to give 1.0-2.0 mg protein per ml of suspension.
(b) Binding to Vasopressin V1 Receptor Subtype in Human Platelet Membranes:
In wells of a 96 well format microtiter plate, add 100 μl of 50.0 mM Tris.HCl buffer containing 0.2% BSA and a mixture of protease inhibitors (aprotinin, leupeptin etc.). Then add 20 μl of [^3 H]Ligand (Manning or Arg^8 Vasopressin), to give final concentrations ranging from 0.01 to 10.0 nM. Initiate the binding by adding 80.0 μl of platelet suspension (approx. 100 μg protein). Mix all reagents by pipetting the mixture up and down a few times. Non specific binding is measured in the presence of 1.0 μM of unlabeled ligand (Manning or Arg^8 Vasopressin). Let the mixture stand undisturbed at room temperature for ninety (90) min. Upon this time, rapidly filter off the incubate under vacuum suction over GF/B filters, using a Brandel Harvester. The radioactivity caught on the filter disks is determined by the addition of liquid scintillant and counting in a liquid scintillator.

The target of assay [5] is T4, human V2 vasopressin receptor (Homo sapiens, UniProt P30518).
T4 construct: expressed in transfected cells; host or cells: mouse fibroblast cell line LV-2
The experiment in a line: Binding to Membranes of Mouse Fibroblast Cell Line (LV-2) Transfected with the cDNA Expressing the Human V2 Vasopressin Receptor. The following applies: LV-2 cells. Here is the method: Flasks of 175 ml capacity, containing attached cells grown to confluence, are cleared of culture medium by aspiration. The flasks containing the attached cells are rinsed with 2×5 ml of phosphate buffered saline (PBS) and the liquid aspirated off each time. Finally, 5 ml of an enzyme free dissociation Hank's based solution (Specialty Media, Inc., Lafayette, N.J.) is added and the flasks are left undisturbed for 2 min. The content of all flasks is poured into a centrifuge tube and the cells pelleted at 300×g for 15 min. The Hank's based solution is aspirated off and the cells homogenized with a polytron at setting #6 for 10 sec in 10.0 mM Tris.HCl buffer, pH 7.4 containing 0.25M sucrose and 1.0 mM EDTA. The homogenate is centrifuged at 1500×g for 10 min to remove ghost membranes. The supernatant fluid is centrifuged at 100,000×g for 60 min to pellet the receptor protein. Upon completion, the pellet is resuspended in a small volume of 50.0 mM Tris.HCl buffer, pH 7.4. The protein content is determined by the Lowry method and the receptor membranes are suspended in 50.0 mM Tris.HCl buffer containing 0.1 mM phenylmethylsulfonylfluoride (PMSF) and 0.2% bovine serum albumin (BSA) to give 2.5 mg receptor protein per ml of suspension.
For binding experiments, the following is added in μl volume to wells of a 96 well format of a microtiter plate: 100.0 μl of 100.0 mM Tris.HCl buffer containing 0.2% heat inactivated BSA, 10.0 mM MgCl2 and a mixture of protease inhibitors: leupeptin, 1.0 mg %; aprotinin, 1.0 mg %; 1,10-phenanthroline, 2.0 mg %; trypsin inhibitor, 10.0 mg % and 0.1 mM PMSF., 20.0 μl of [^3 H] Arginine^8, vasopressin (S.A. 75.0 Ci/mmole) at 0.8 nM and the reaction initiated by the addition of 80.0 μl of tissue membranes ([…]).
The plates are left undisturbed on the bench top for 120 min to reach equilibrium. Non specific binding is assessed in the presence of 1.0 μM of unlabeled ligand, added in 20 μl volume. For test compounds, these are solubilized in 50% dimethylsulfoxide (DMSO) and added in 20.0 μl volume to a final incubation volume of 200 μl. Upon completion of binding, the content of each well is filtered off, using a Brandel® cell Harvester (Gaithersburg, Md.). The radioactivity trapped on the filter disk by the ligand-receptor complex is assessed by liquid scintillation counting in a Packard LS Counter, with an efficiency of 65% for tritium.

T1 sequence (Q00788 whole entry): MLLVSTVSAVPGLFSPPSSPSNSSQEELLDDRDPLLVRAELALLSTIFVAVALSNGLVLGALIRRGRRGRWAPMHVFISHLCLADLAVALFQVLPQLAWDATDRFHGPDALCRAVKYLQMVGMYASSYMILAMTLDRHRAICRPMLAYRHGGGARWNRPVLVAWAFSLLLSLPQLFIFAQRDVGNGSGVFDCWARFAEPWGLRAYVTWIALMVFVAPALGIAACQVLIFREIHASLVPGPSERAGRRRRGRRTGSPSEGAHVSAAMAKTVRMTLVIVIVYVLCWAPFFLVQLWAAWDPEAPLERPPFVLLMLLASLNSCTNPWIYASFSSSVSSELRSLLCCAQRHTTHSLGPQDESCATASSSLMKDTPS
Sequence of vasopressin V1 receptor (rat liver plasma membranes) (P30560 whole entry): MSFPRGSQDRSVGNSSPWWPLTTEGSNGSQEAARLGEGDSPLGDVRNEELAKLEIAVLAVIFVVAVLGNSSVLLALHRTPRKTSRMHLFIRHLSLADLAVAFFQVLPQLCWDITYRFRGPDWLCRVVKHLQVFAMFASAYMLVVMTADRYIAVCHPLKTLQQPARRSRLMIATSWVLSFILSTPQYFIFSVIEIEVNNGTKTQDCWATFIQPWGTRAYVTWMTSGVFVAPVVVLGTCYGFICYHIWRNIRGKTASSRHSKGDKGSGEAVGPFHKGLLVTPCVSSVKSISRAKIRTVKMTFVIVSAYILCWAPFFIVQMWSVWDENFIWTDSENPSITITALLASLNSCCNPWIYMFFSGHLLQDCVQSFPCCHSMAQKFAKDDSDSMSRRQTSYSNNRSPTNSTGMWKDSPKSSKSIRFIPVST
T3 sequence (P37288 whole entry): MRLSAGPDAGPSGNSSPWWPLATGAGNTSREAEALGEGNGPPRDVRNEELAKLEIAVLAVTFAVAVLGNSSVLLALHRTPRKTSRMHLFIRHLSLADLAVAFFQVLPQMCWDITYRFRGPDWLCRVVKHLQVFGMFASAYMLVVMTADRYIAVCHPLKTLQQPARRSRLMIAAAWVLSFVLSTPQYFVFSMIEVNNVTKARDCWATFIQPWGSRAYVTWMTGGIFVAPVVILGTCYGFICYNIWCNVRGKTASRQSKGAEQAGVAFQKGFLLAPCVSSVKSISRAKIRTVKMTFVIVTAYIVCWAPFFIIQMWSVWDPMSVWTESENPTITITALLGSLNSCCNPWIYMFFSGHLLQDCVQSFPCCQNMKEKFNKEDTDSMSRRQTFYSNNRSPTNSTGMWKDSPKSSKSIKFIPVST
T4 sequence (P30518 whole entry): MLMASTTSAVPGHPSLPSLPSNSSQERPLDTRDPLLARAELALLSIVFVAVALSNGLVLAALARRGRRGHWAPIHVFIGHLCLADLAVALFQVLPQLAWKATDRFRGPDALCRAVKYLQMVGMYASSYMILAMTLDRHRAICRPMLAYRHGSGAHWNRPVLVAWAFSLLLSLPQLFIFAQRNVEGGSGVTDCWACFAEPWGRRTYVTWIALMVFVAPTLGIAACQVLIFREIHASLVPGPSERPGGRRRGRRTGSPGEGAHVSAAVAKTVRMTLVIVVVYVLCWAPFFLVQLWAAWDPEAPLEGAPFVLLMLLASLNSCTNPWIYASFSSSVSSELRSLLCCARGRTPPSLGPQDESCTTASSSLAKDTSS

As for `Cc1cccc(C(=O)Nc2ccc(C(=O)N3Cc4ccccc4Cc4ccccc43)cc2)c1C` [Example 11, N-[4-[(6,11-Dihydro-5H-dibenz[b,e]azepin-5-yl)carbonyl]phenyl]-2,3-dimethylbenzamide], the IC50 in assay [1] stood at 160 nM; in assay [2] it was 33 nM; in assay [3] (first part of Table V), 4400 nM. For the same molecule, the Osmolality in the assay with vasopressin V2 (30 mg/kg orally) stood at 1114 ± 55 mOsm/kg. Besides, the “Urine Volume” value in the assay with vasopressin V2 (30 mg/kg orally) was 9.7 ± 0.6 ml/4 hrs. This molecule also showed an inhibition at 10 µM in assay [3] of 71%.

Consider `O=C(Nc1ccc(C(=O)N2Cc3ccccc3Cc3ccccc32)cc1)c1ccc(Cl)c(Cl)c1` [Example 250, N-[4-[(6,11-Dihydro-5H-dibenz[b,e]azepin-5-yl)-carbonyl]phenyl]-3,4-dichlorobenzamide], for which the inhibition at 10 µM was found to be 62% in assay [1], 77% in assay [2] and 15% in assay [3]. Moreover, the Osmolality in the assay on vasopressin V2 (30 mg/kg orally) stood at 1378 mOsm/kg. In the assay on vasopressin V2 (30 mg/kg orally), the “Urine Volume” value is 6.5 ml/4 hrs.

`Cc1c(F)cccc1C(=O)Nc1ccc(C(=O)N2Cc3ccccc3Cc3ccccc32)cc1` [Example 254, N-(4-[(6,11-Dihydro-5H-dibenz[b,e]azepin-5-yl)-carbonyl]phenyl]-2-methyl-3-fluorobenzamide]: the values for the IC50 in assay [1], in assay [2] and in assay [3] (first part of Table V) were 100 nM, 37 nM and 1900 nM, respectively. In addition, in the assay with vasopressin V1, the “MAX % Inhibition” value came out at 74%. For the same molecule, the “Time of max % inhibition” value with vasopressin V1 was determined as 60 min. Further, the inhibition at 10 µM in assay [3] was found to be 95%.

With `Cc1c(F)cccc1C(=O)Nc1ccc(C(=O)N2Cc3ccccc3Cc3ccccc32)c(Cl)c1` [Example 264, N-[4-[(6,11-Dihydro-5H-dibenz[b,e]azepin-5-yl)-carbonyl]-3-chlorophenyl]-2-methyl-3-fluorobenzamide], the values for the IC50 in assay [4] and in assay [5] were 980 nM and 28 nM, respectively. In addition, the Osmolality with vasopressin V2 (10 mg/kg orally) stood at 682 mOsm/kg. For the same molecule, in the assay with vasopressin V2 (10 mg/kg orally), the “Urine Volume” value was 12 ml/4 hrs.

On to `CN(C)CC(=O)Nc1ccc(C(=O)N2Cc3ccccc3Cc3ccccc32)cc1` [Example 454], for which the inhibition at 10 µM in assay [1] turned out to be 64%; in assay [2] it was 33%; in assay [3] it was 78%. In assay [3] (second part of Table V), this molecule showed a half-inhibitory concentration (IC50) of 2500 nM.

Regarding `Cc1c(F)cccc1C(=O)Nc1ccc(C(=O)N2CCc3c[nH]nc3-c3ccccc32)c(Cl)c1` [Example 582], the IC50 in assay [1] was determined as 1300 nM; in assay [2], 5.3 nM; in assay [3] (second part of Table V), 275 nM.

Consider `O=C(Nc1ccc(C(=O)N2CCc3c[nH]nc3-c3ccccc32)cc1)c1ccc(Cl)cc1Cl` [Example 583, N-[4-[(4,5-Dihydropyrazolo[4,3-d][1]benzazepin-6(2H)-yl)carbonyl]phenyl]-2,4-dichlorobenzamide], for which the results for the IC50 in assay [1], in assay [2] and in assay [3] (second part of Table V) were 82 nM, 40 nM and 330 nM, respectively. The inhibition at 10 µM in assay [3] came out at 95%.

On to `Cc1ccccc1C(=O)Nc1ccc(C(=O)N2CCc3c[nH]nc3-c3ccccc32)cc1` [Example 585, N-[4-[(4.5-Dihydropyrazolo[4.3-d][1]benzaze-in-6(2H)-yl)carbonyl]phenyl]-2-methylbenzamide], for which the values for the IC50 in assay [2], in assay [4] and in assay [3] (second part of Table V) were 32 nM, 12 nM and 250 nM, respectively. Moreover, the inhibition at 10 µM in assay [3] is 99%.

As a reminder, the IC50 is the concentration at which inhibition is half-maximal. The low end stands for higher potency, the high end for lower potency.
